Legend:
HL-60 cells [1] = test: CD14 expression by flow cytometry; format: cell-based, human
Method: In order to measure cell surface CD14 antigen on HL-60 cells, promyelocytic leukemia cell line, HL-60, was treated with either 1,25(OH)2D3 or paricalcitol (10^−7M) for 4 days and examined for CD14 expression by flow cytometry using CD14 antibody (DAKO, Carpinteria, Calif.), as described previously (Hisatake et al., supra, 2001). Murine IgG1 antibody (DAKO) was used as a control.
Measurement of cell surface CD14 antigen on HL-60 cells by flow cytometry using CD14 antibody (DAKO, Carpinteria, Calif.), was determined as described previously (Hisatake et al. Blood 97:2427-2433 (2001)). Murine IgG1 antibody (DAKO) was used as a control.

NCI-H929 cells [2] = test: TUNEL assay of apoptosis; format: cell-based, human; conditions: 10^−7M, 96 hrs, diluant control 4%
Method: In FIG. […] Results represent the mean±SD of three independent experiments. A TUNEL assay was performed for immunohistochemical detection and quantification of programmed cell death at the single cell level, based on labeling of DNA strand breaks using the In Situ Cell Death Detection, POD (Roche, Indianapolis, Ind.). Early apoptosis was also detected by measuring annexin V protein in the cell membrane using Annexin V-FITC Kit (CLONTECH, Palo Alto, Calif.) followed by flow cytometric analysis.

SW837 cells = test: Western blot of cell lysates; format: cell-based, human; conditions: 10^−7M, 72 hrs
Method: (§1) Western blot analysis was used to determine the levels of proteins involved in cell cycle and differentiation. […] After centrifugation at 15,000×g for 15 min at 4° C., the suspension was collected. Protein concentrations were quantitated using the Bio-Rad assay (Bio-Rad Labolatories, Hercules, Calif.). […] The blots were developed using the Supersignal West Pico Chemiluminescent Substrate Kit (Pierce, Rockford, Ill.). In FIG. 4C, HT-29 and SW837 cells were cultured with either paricalcitol (10^−7M) or 1,25(OH)2D3 (10^−7M) for 72 hrs. Cell lysates were prepared and analyzed by Western blot which was probed sequentially with antibodies to COX-1 and COX-2 (Santa Cruz Biotechnology). Control cells were treated with vehicle alone. The amount of protein was normalized by comparison to the quantity of GAPDH.

NCI-H929 cells [3] = test: Cell cycle analysis by flow cytometry; format: cell-based, human; conditions: 10^−7M, 72 hrs
Method: For cell cycle analysis, cells were exposed to 10^−7M 1,25(OH)2D3, 10^−7M paricalcitol or vehicle control for either 3 or 4 days. Total cells, both in suspension and adherent, were collected, washed, suspended in cold PBS. Then cells were fixed in 75% chilled methanol and stained with propidium iodine. Cell cycle status was analyzed on a Becton Dickinson Flow Cytometer.
HCI-H929 cells were cultured with either paricalcitol (10^−7M) or 1,25(OH)2D3 (10^−7M) for 72 hrs, harvested and stained with propidium iodine (PI). Control cells were treated with vehicle alone.

NB-4 cells = test: Western blot of cell lysates; format: cell-based, human; conditions: 10^−7 M, 72 hrs
Method: (§2) Western blot analysis was used to determine the levels of proteins involved in cell cycle and differentiation. For western blot analysis, cells were washed twice in PBS, suspended in lysis buffer [50 mM Tris (pH 8.0), 150 mM NaCl, 0.1% SDS, 0.5% sodium deoxycholate, 1% NP40, […] phenylmethylsulfonyl fluoride, […] aprotinin, […] pepstatin, and […] leupetin] and placed on ice for 30 min. After centrifugation at 15,000×g for 15 min at 4° C., the suspension was collected. Protein concentrations were quantitated using the Bio-Rad assay (Bio-Rad Labolatories, Hercules, Calif.). Whole lysates ([…]) were resolved by 4-15% SDS polyacrylamide gel, transferred to an immobilon polyvinylidene difuride membrane (Amersham Corp., Arlington Heights, Ill.), and probed sequentially with a number of antibodies (p21WAF1, p27KIP1, PTEN, and GAPDH, Santa Cruz Biotechnology Inc., Santa Cruz, Calif.). The blots were developed using the Supersignal West Pico Chemiluminescent Substrate Kit (Pierce, Rockford, Ill.).
(§3) Western blot analysis was performed as follows: cells were washed twice in PBS, suspended in lysis buffer (50 mM Tris at pH 8.0, 150 mM NaCl, 0.1% SDS, 0.5% sodium deoxycholate, 1% Nonidet P-40, phenylmethylsulfonyl fluoride at 100 μg/mL, aprotinin at 2 μg/mL, pepstatin at 1 μg/mL, and leupetin at 10 μg/mL), and placed on ice for 30 minutes. After centrifugation at 15,000×g for 15 minutes at 4° C., the suspension was collected. Protein concentrations were quantitated by using the Bio-Rad protein Assay Dye Reagent Concentrate (Bio-Rad Laboratories, Hercules, Calif.) according to the manufacture's recommendation. Whole cell lysates (40 μg) were resolved by SDS-polyacrylamide gel electrophoresis in a 4%-15% gel, transferred to a polyvinylidene difuride membrane (Immobilon, Amersham Corp., Arlington Heights, Ill.), and probed sequentially with antibodies against the following proteins: VDR, RXR, CEBPβ, Rb, Bcl-2, Bcl-XL, Bax, p-ERK, RARA, GAPDH (Santa Cruz Biotechnology Inc., Santa Cruz, CA). The blots were developed using the Supersignal West Pico Chemiluminescent Substrate Kit (Pierce, Rockford, Ill.).

HL-60 cells [4] = test: Western blot of cell lysates; format: cell-based, human
Method: as §2, §3

HT-29 cells = test: Western blot of cell lysates; format: cell-based, human; conditions: 10^−7M, 72 hrs
Method: as §1, with “FIG. 4B, HT-29 cells were exposed to either paricalcitol (10^−7M) or 1,25(OH)2D3(10^−7M). Cell lysates were prepared after 72 hrs of culture and analyzed by Western blot. The Western blot was probed sequentially with antibodies for p27KIP1, p21WAF1, cyclin D1, c-myc and E-Cadherin (antibodies from Santa Cruz Biotechnology) as described in Example II. Control cells were treated with vehicle alone. The quantity of protein was normalized by comparison to the amount of GAPDH. In FIG.” for “FIG.”

[5] = humans, cited from earlier work
NCI-H929 cells [6] = test: Western blot of cell lysates; format: cell-based, human; conditions: 10^−7M
Method: Western blot analysis was used to determine the levels of proteins involved in cell cycle and differentiation. […] After centrifugation at 15,000×g for 15 min at 4° C., the suspension was collected. Protein concentrations were quantitated using the Bio-Rad assay (Bio-Rad Labolatories, Hercules, Calif.). […] The blots were developed using the Supersignal West Pico Chemiluminescent Substrate Kit (Pierce, Rockford, Ill.). In FIG. 3C, NCI-H929 cells were treated with either paricalcitol (10^−7M) or 1,25(OH)2D3 (10^−7M) and cell lysates were prepared after 72 hrs. Cell lysates were used for Western blot analysis and probed sequentially with antibodies to p27KIP1, Bcl-2 and Bax. Control cells were treated with vehicle alone. Amount of protein was normalized by comparison to the amount of GAPDH. […] The Bcl-2 and Bax antibodies were obtained from Santa Cruz Biotechnology Inc., Santa Cruz, Calif.

COc1cccc(-c2cc(=O)c3ccccc3o2)c1N [PD98059]
monocytic differentiation (CD14) induced by paricalcitol and by the combination with arsenic trioxide (HL-60 cells [1]; PD98059 25 μM, 2 days): blocked

C=C1/C(=C\C=C2/CCC[C@]3(C)[C@@H]([C@H](C)CCCC(C)(C)O)CC[C@@H]23)C[C@@H](O)C[C@@H]1O [1,25(OH)2D3]
apoptotic cells (TUNEL) (NCI-H929 cells [2]): 20%
decrease of COX-2 expression (SW837 cells): 50%
effect on COX-1 expression (SW837 cells): suppressed COX-2 but not COX-1 expression
increase of accumulation in G1/G0 phase (NCI-H929 cells [3]): 7%
increase in apoptotic sub-G1 population (NCI-H929 cells [3]; diluant control 4% sub-G1): 16%
cells induced to express CD14 (HL-60 cells [1]; 10^−7M, 96 hrs): 54%
PTEN expression (in words) (NB-4 cells): induced PTEN expression
induction of p21WAF1 (HL-60 cells [4]; 10^−7M, 72 hr): approximately 7 fold
induction of p27KIP1 (HL-60 cells [4]; 10^−7M, 72 hr): about 6 fold
PTEN expression (in words) (HL-60 cells [4]; 10^−7 M, 72 hrs): induced PTEN expression
decrease of COX-2 expression (HT-29 cells): 50%
decrease of c-myc expression (HT-29 cells): ~40%
decrease of cyclin D1 expression (HT-29 cells): about 50%
effect on COX-1 expression (HT-29 cells): suppressed COX-2 but not COX-1 expression
increase of E-cadherin (HT-29 cells): about 6 fold
serum half-life ([5]; paricalcitol compared with 1,25(OH)2D3): similar
peak serum levels ([5]; typical dose 0.5 to 1.0 mg/every other day): 40 to 60 pg/mL
decrease of Bcl-2 protein level (NCI-H929 cells [6]; 72 hrs): about 40%
effect on levels of Bax (NCI-H929 cells [6]; 72 hrs): did not affect
effect on levels of p21WAF1 (NCI-H929 cells [6]; 96 hrs): little effect
increase of p27KIP1 expression (NCI-H929 cells [6]; 96 hrs): about 3 fold
